Assay results published in patent US9499550B2 (BRISTOL-MYERS SQUIBB COMPANY, priority 2012, dated 2016).
Like-named read-outs stand apart in the source and are kept apart here.

Experiments:
[1] = system: HCV genotype 1b (Con1) replicon in HUH-7 cells; test: HCV replicon luciferase reporter assay, genotype 1b; assay type: cell-based; settings: Hepatitis C virus, Huh-7, 72 h, 3 days incubation, read-out: LE_1b (EC50, range)
Method in brief: (§1)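 Replicon inhibition for both genotypes was measured as Renilla luciferase signal (EnduRen, 7.5 μM final, 2 h) after 3-day, 37° C exposure of replicon-bearing HUH-7 cells in 4% FCS DMEM, 0.5% DMSO. The 1b construct carries S1179I; the 1a H77 construct carries P1496L and S2204I. Twenty-point, 3-fold dilutions were fitted four-parametrically for EC50, and CC50 was taken from multiplexed Cell Titer-Blue.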

[2] = system: HCV genotype 1a (H77 strain) replicon in HUH-7 cells; test: HCV replicon luciferase reporter assay, genotype 1a; assay type: cell-based; settings: Hepatitis C virus, Huh-7, 72 h, 3 days incubation, read-out: LE_1a (EC50, range)
Method in brief: as §1

[3] = HCV genotype 1b replicon luciferase
[4] = HCV genotype 1a replicon luciferase
[5] = HCV genotype 1b replicon luciferase assay, range class
[6] = HCV genotype 1a replicon luciferase assay, range class

Row | Compound | EC50 [1, 3] | EC50 [2, 4] | EC50 [1, 5] | EC50 [2, 6] | also measured
1 | CC[C@@H]1C[C@H](C)CC/C=C\[C@@H]2C[C@@]2(C(=O)NS(=O)(=O)C2(C)CC2)NC(=O)[C@@H]2C[C@@H](Oc3nc4c(c5cc(OC)ccc35)CCCO4)CN2C(=O)[C@H]1NC(=O)OC(C)(C)C(F)F [Compound 6092, 1,1-difluoro-2-methylpropan-2-yl((2R,6S,7R,9R,13aS,14aR,16aS,Z)-7-ethyl-2-((9-methoxy-2,3-dihydro-1H-pyrano[2,3-c]isoquinolin-6-yl)oxy)-9-methyl-14a-(((1-methylcyclopropyl)sulfonyl)carbamoyl)-5,16-dioxo-1,2,3,5,6,7,8,9,10,11,13a,14,14a,15,16,16a-hexadecahydrocyclopropa[e]pyrrolo[1,2-a][1,4]diazacyclopentadecin-6-yl)carbamate] | 1.01 to 5 nM | 1.01 to 5 nM | – | – | –
2 | COc1ccc2c(O[C@@H]3C[C@H]4C(=O)N[C@]5(C(=O)NS(=O)(=O)C6(C)CC6)C[C@H]5/C=C\CC[C@@H](C)C[C@@H](C)[C@H](NC(=O)O[C@@H]5C[C@@H]6C[C@@H]6C5)C(=O)N4C3)nc(N3CCOCC3)cc2c1 [Compound 3097, (1R,3r,5S)-bicyclo[3.1.0]hexan-3-yl((2R,6S,7R,9R,13aS,14aR,16aS,Z)-2-((6-methoxy-3-morpholinoisoquinolin-1-yl)oxy)-7,9-dimethyl-14a-(((1-methylcyclopropyl)sulfonyl)carbamoyl)-5,16-dioxo-1,2,3,5,6,7,8,9,10,11,13a,14,14a,15,16,16a-hexadecahydrocyclopropa[e]pyrrolo[1,2-a][1,4]diazacyclopentadecin-6-yl)carbamate] | – | – | < 5.46 nM | < 5.46 nM | –
3 | COc1ccc2c(O[C@@H]3C[C@H]4C(=O)N[C@]5(C(=O)NS(=O)(=O)C6(CF)CC6)C[C@H]5/C=C\CC[C@@H](C)C[C@@H](C)[C@H](NC(=O)OC(C)(C)C(C)(F)F)C(=O)N4C3)nc(OC)cc2c1 [Compound 1128] | – | – | – | – | EC50 ([1]; GETYPE1B, HCV genotype 1b replicon luciferase assay, range class): < 5.46 nM; EC50 ([2]; GETYPE1A, HCV genotype 1a replicon luciferase assay, range class): < 5.46 nM
4 | COc1cc(F)cc2c(O[C@@H]3C[C@H]4C(=O)N[C@]5(C(=O)NS(=O)(=O)C6(C)CC6)C[C@H]5/C=C\CC[C@@H](C)C[C@@H](C)[C@H](NC(=O)O[C@H](C)C(F)(F)F)C(=O)N4C3)nccc12 [Compound 3158, (R)-1,1,1-trifluoropropan-2-yl ((2R,6S,7R,9R,13aS,14aR,16aS,Z)-2-((7-fluoro-5-methoxyisoquinolin-1-yl)oxy)-7,9-dimethyl-14a-(((1-methylcyclopropyl)sulfonyl)carbamoyl)-5,16-dioxo-1,2,3,5,6,7,8,9,10,11,13a,14,14a,15,16,16a-hexadecahydrocyclopropa[e]pyrrolo[1,2-a][1,4]diazacyclopentadecin-6-yl)carbamate] | – | – | < 5.46 nM | < 5.46 nM | –
5 | C[C@@H]1CC/C=C\[C@@H]2C[C@@]2(C(=O)NS(=O)(=O)C2(C)CC2)NC(=O)[C@@H]2C[C@@H](Oc3nccc4c5c(ccc34)N(C)CCO5)CN2C(=O)[C@@H](NC(=O)c2ccc(N(C)C)cc2)[C@H](C)C1 [Compound 5304, (2R,6S,7R,9R,13aS,14aR,16aS,Z)-6-(4-(dimethylamino)benzamido)-7,9-dimethyl-2-((4-methyl-3,4-dihydro-2H-[1,4]oxazino[2,3-f]isoquinolin-7-yl)oxy)-N-((1-methylcyclopropyl)sulfonyl)-5,16-dioxo-1,2,3,5,6,7,8,9,10,11,13a,14,14a,15,16,16a-hexadecahydrocyclopropa[e]pyrrolo[1,2-a][1,4]diazacyclopentadecine-14a-carboxamide] | < 5.46 nM | < 5.46 nM | – | – | –
6 | COc1cnc(O[C@@H]2C[C@H]3C(=O)N[C@]4(C(=O)NS(=O)(=O)C5(CF)CC5)C[C@H]4CCCC[C@@H](C)C[C@@H](C)[C@H](NC(=O)OC(C)(C)C(F)(F)F)C(=O)N3C2)c2ccccc12 [Compound 5117, 1,1,1-trifluoro-2-methylpropan-2-yl((2R,6S,7R,9R,13aR,14aR,16aS)-14a-(((1-(fluoromethyl)cyclopropyl)sulfonyl)carbamoyl)-2-((4-methoxyisoquinolin-1-yl)oxy)-7,9-dimethyl-5,16-dioxooctadecahydrocyclopropa[e]pyrrolo[1,2-a][1,4]diazacyclopentadecin-6-yl)carbamate] | < 5.46 nM | < 5.46 nM | – | – | –
7 | CC(C)Oc1ccc2c(O[C@@H]3C[C@H]4C(=O)N[C@]5(C(=O)NS(=O)(=O)C6(C)CC6)C[C@H]5/C=C\CC[C@H](C)C[C@@H](C)[C@H](NC(=O)O[C@@H]5C[C@@H]6C[C@@H]6C5)C(=O)N4C3)nccc2c1 [Compound 5162, (1R,3r,5S)-bicyclo[3.1.0]hexan-3-yl((2R,6S,7R,9S,13aS,14aR,16aS,Z)-2-((6-isopropoxyisoquinolin-1-yl)oxy)-7,9-dimethyl-14a-(((1-methylcyclopropyl)sulfonyl)carbamoyl)-5,16-dioxo-1,2,3,5,6,7,8,9,10,11,13a,14,14a,15,16,16a-hexadecahydrocyclopropa[e]pyrrolo[1,2-a][1,4]diazacyclopentadecin-6-yl)carbamate] | < 5.46 nM | 4.82 to 103 nM | – | – | –
8 | COc1ccc2c(O[C@@H]3C[C@H]4C(=O)N[C@]5(C(=O)NS(=O)(=O)C6CC6)C[C@H]5/C=C\CC[C@H](C)C[C@@H](C)[C@H](NC(=O)OC(C)(C)C)C(=O)N4C3)nc(-c3ccc(OC(C)C)c(F)c3)cc2c1 [Compound 3059, tert-butyl ((2R,6S,7R,9S,13aS,14aR,16aS,Z)-14a-((cyclopropylsulfonyl)carbamoyl)-2-((3-(3-fluoro-4-isopropoxyphenyl)-6-methoxyisoquinolin-1-yl)oxy)-7,9-dimethyl-5,16-dioxo-1,2,3,5,6,7,8,9,10,11,13a,14,14a,15,16,16a-hexadecahydrocyclopropa[e]pyrrolo[1,2-a][1,4]diazacyclopentadecin-6-yl)carbamate] | – | – | < 5.46 nM | 4.82 to 103 nM | –
9 | COc1ccc2c(O[C@@H]3C[C@H]4C(=O)N[C@]5(C(=O)NS(=O)(=O)C6(C)CC6)C[C@H]5/C=C\CC[C@@H](C)C[C@@H](C)[C@H](NC(=O)OC(C)(C)C)C(=O)N4C3)nc(-c3ccc(OC(C)C)cc3)nc2c1 [Compound 3008, tert-butyl ((2R,6S,7R,9R,13aS,14aR,16aS,Z)-2-((2-(4-isopropoxyphenyl)-7-methoxyquinazolin-4-yl)oxy)-7,9-dimethyl-14a-(((1-methylcyclopropyl)sulfonyl)carbamoyl)-5,16-dioxo-1,2,3,5,6,7,8,9,10,11,13a,14,14a,15,16,16a-hexadecahydrocyclopropa[e]pyrrolo[1,2-a][1,4]diazacyclopentadecin-6-yl)carbamate] | – | – | < 5.46 nM | < 5.46 nM | –
10 | CC[C@@H]1C[C@@H](C)CC/C=C\[C@@H]2C[C@@]2(C(=O)NS(=O)(=O)C2CC2)NC(=O)[C@@H]2C[C@@H](Oc3nccc4c(OC)cccc34)CN2C(=O)[C@H]1NC(=O)OC(C)(C)C [Compound 3025, tert-butyl ((2R,6S,7R,9S,13aS,14aR,16aS,Z)-14a-((cyclopropylsulfonyl)carbamoyl)-7-ethyl-2-((5-methoxyisoquinolin-1-yl)oxy)-9-methyl-5,16-dioxo-1,2,3,5,6,7,8,9,10,11,13a,14,14a,15,16,16a-hexadecahydrocyclopropa[e]pyrrolo[1,2-a][1,4]diazacyclopentadecin-6-yl)carbamate] | – | – | 4.82 to 103 nM | 4.82 to 103 nM | –
11 | COc1ccc2c(O[C@@H]3C[C@H]4C(=O)N[C@]5(C(=O)NS(=O)(=O)C6(Cl)CC6)C[C@H]5/C=C\CC[C@@H](C)C[C@@H](C)[C@H](NC(=O)OC(C)(C)C(F)(F)F)C(=O)N4C3)ncc(OC)c2c1 [Compound 4124] | – | – | – | – | EC50 ([1]; GETYPE1B, HCV genotype 1b replicon luciferase): < 5.46 nM; EC50 ([2]; GETYPE1A, HCV genotype 1a replicon luciferase): < 5.46 nM
12 | COc1ccc2c(O[C@@H]3C[C@H]4C(=O)N[C@]5(C(=O)NS(=O)(=O)C6CC6)C[C@H]5/C=C\CC[C@@H](C)C[C@@H](C)[C@H](NC(=O)O[C@@H]5C[C@@H]6C[C@@H]6C5)C(=O)N4C3)nc(-c3ccc(OC(C)C)c(F)c3)cc2c1 [Compound 3070, (1R,3r,5S)-bicyclo[3.1.0]hexan-3-yl((2R,6S,7R,9R,13aS,14aR,16aS,Z)-14a-((cyclopropylsulfonyl)carbamoyl)-2-((3-(3-fluoro-4-isopropoxyphenyl)-6-methoxyisoquinolin-1-yl)oxy)-7,9-dimethyl-5,16-dioxo-1,2,3,5,6,7,8,9,10,11,13a,14,14a,15,16,16a-hexadecahydrocyclopropa[e]pyrrolo[1,2-a][1,4]diazacyclopentadecin-6-yl)carbamate] | – | – | < 5.46 nM | < 5.46 nM | –
13 | [2H]C([2H])([2H])C(C)(OC(=O)N[C@@H]1C(=O)N2C[C@H](Oc3nccc4cc(OC)ccc34)CC2C(=O)N[C@]2(C(=O)NS(=O)(=O)C3(C)CC3)C[C@H]2/C=C\CC[C@H](C)C[C@H]1C)C([2H])([2H])[2H] (stereo partly drawn) [Compound 5176, 1,1,1,3,3,3-hexadeutero-2-methylpropan-2-yl((2R,6S,7R,9S,13aS,14aR,16aS,Z)-2-((6-methoxyisoquinolin-1-yl)oxy)-7,9-dimethyl-14a-(((1-methylcyclopropyl)sulfonyl)carbamoyl)-5,16-dioxo-1,2,3,5,6,7,8,9,10,11,13a,14,14a,15,16,16a-hexadecahydrocyclopropa[e]pyrrolo[1,2-a][1,4]diazacyclopentadecin-6-yl)carbamate] | < 5.46 nM | 4.82 to 103 nM | – | – | –
